US12516051B1, “Small molecule degraders and fluorescent probes of PXR” (St. Jude Children's Research Hospital, Inc., priority 2024, dated 2026)
Read-outs that look alike come from different tables or passages of the source.

Tested on: SNU-C4 HiBiT-PXR KI cells
Assay: Cytotoxicity, CellTiter-Glo Luminescent Cell Viability Assay
Assay type: cell-based
Method: An Echo 655T Acoustic Liquid Handler was used to dispense 75 nL/well of DMSO or PROTAC dilution into white tissue culture-treated 384-well plates. For 24 h cytotoxicity, 25 μL assay media containing 1×10^4 cells was added to each well to match the conditions for the degradation assays. For 72 h cytotoxicity, 25 μL RPMI with 10% FBS containing 2.5×10^3 cells was added to each well to match normal growth conditions. […] After 24 h or 72 h, the CellTiter-Glo Luminescent Cell Viability Assay (Promega, cat. #G7572) and an EnVision microplate reader were used to assess cytotoxicity. DMSO wells with cells served as positive controls, and wells without cells served as negative controls. The percent cell viability for each well was calculated using equation 5,

[1] = read-out: 24 h CC50, Table 3, 24 h treatment
[2] = read-out: 72 h CC50, Table 3, 72 h treatment
[3] = read-out: 24 h CC50, Table 2, 24 h treatment
[4] = read-out: 72 h CC50, Table 2, 72 h treatment
[5] = read-out: 24 h CC50, Table 4, 24 h treatment
[6] = read-out: 72 h CC50, Table 4, 72 h treatment

Row | Structure (SMILES) | CC50 [1] [µM] | CC50 [2] [µM] | CC50 [3] [µM] | CC50 [4] [µM] | also measured
1 | COc1cc(OCCCCCCOCCOCCOCCOCCOCCOCC(=O)N[C@H](C(=O)N2C[C@H](O)C[C@H]2C(=O)NCc2ccc(-c3scnc3C)cc2)C(C)(C)C)c(C)cc1-n1nnc(S(=O)(=O)c2ccc(C(C)(C)C)cc2)c1C [Compound 34, (2S,4R)-1-((S)-2-(tert-Butyl)-27-(4-(4-((4-(tert-butyl)phenyl)sulfonyl)-5-methyl-1H-1,2,3-triazol-1-yl)-5-methoxy-2-methylphenoxy)-4-oxo-6,9,12,15,18,21-hexaoxa-3-azaheptacosanoyl)-4-hydroxy-N-(4-(4-methylthiazol-5-yl)benzyl)pyrrolidine-2-carboxamide] | > 30 | > 30 | – | – | –
2 | CCC[C@H](CC)Oc1ccc(C(=O)NCCOCCOCCOCCOCC(=O)N[C@H](C(=O)N2C[C@H](O)C[C@H]2C(=O)NCc2ccc(-c3scnc3C)cc2)C(C)(C)C)cc1NC(=O)c1nnn(-c2cc(OC)ccc2OC)c1C [Compound 21] | – | – | > 30 | > 30 | –
3 | COc1cc(OCC(=O)N[C@H](C(=O)N2C[C@H](O)C[C@H]2C(=O)NCc2ccc(-c3scnc3C)cc2)C(C)(C)C)c(C)cc1-n1nnc(S(=O)(=O)c2ccc(C(C)(C)C)cc2)c1C [Compound 22, (2S,4R)-1-((S)-2-(2-(4-(4-((4-(TERT-BUTYL)PHENYL)SULFONYL)-5-METHYL-1H-1,2,3-TRIAZOL-1-YL)-5-METHOXY-2-METHYLPHENOXY)ACETAMIDO)-3,3-DIMETHYLBUTANOYL)-4-HYDROXY-N-(4-(4-METHYLTHIAZOL-5 YL)BENZYL)PYRROLIDINE-2-CARBOXAMIDE] | > 30 | > 30 | – | – | –
4 | COc1cc(OCCCCCCOCCOCC(=O)N[C@H](C(=O)N2C[C@H](O)C[C@H]2C(=O)NCc2ccc(-c3scnc3C)cc2)C(C)(C)C)c(C)cc1-n1nnc(S(=O)(=O)c2ccc(C(C)(C)C)cc2)c1C [Compound 28, (2S,4R)-1-((S)-2-(2-(2-((6-(4-(4-((4-(TERT-BUTYL)PHENYL)SULFONYL)-5-METHYL-1H-1,2,3-TRIAZOL-1-YL)-5-METHOXY-2-METHYLPHENOXY)HEXYL)OXY)ETHOXY)ACETAMIDO)-3,3-DIMETHYLBUTANOYL)-4-HYDROXY-N-(4-(4-METHYLTHIAZOL-5-YL)BENZYL)PYRROLIDINE-2-CARBOXAMIDE] | > 30 | > 30 | – | – | –
5 | COc1cc(OCCCCCCOCCCCCOCCCCCC(=O)N[C@H](C(=O)N2C[C@H](O)C[C@H]2C(=O)NCc2ccc(-c3scnc3C)cc2)C(C)(C)C)c(C)cc1-n1nnc(S(=O)(=O)c2ccc(C(C)(C)C)cc2)c1C [Compound 32, (2S,4R)-1-((S)-2-(6-((5-((6-(4-(4-((4-(tert-Butyl)phenyl)sulfonyl)-5-methyl-1H-1,2,3-triazol-1-yl)-5-methoxy-2-methylphenoxy)hexyl)oxy)pentyl)oxy)hexanamido)-3,3-dimethylbutanoyl)-4-hydroxy-N-(4-(4-methylthiazol-5-yl)benzyl)pyrrolidine-2-carboxamide] | > 30 | > 30 | – | – | –
6 | CCC[C@H](CC)Oc1ccc(C(=O)N[C@H](C(=O)N2C[C@H](O)C[C@H]2C(=O)NCc2ccc(-c3scnc3C)cc2)C(C)(C)C)cc1NC(=O)c1nnn(-c2cc(OC)ccc2OC)c1C [Compound 16] | – | – | > 30 | > 30 | –
7 | CCC[C@H](CC)Oc1ccc(C(=O)OC)cc1NC(=O)c1nnn(-c2cc(OC)c(OCCCCCCOCCOCC(=O)N[C@H](C(=O)N3C[C@H](O)C[C@H]3C(=O)NCc3ccc(-c4scnc4C)cc3)C(C)(C)C)cc2OC)c1C [Compound 38, METHYL 4-(((S)-HEXAN-3-YL)OXY)-3-(1-(4-((6-(2-(2-(((S)-1-((2S,4R)-4-HYDROXY-2-((4-(4-METHYLTHIAZOL-5-YL)BENZYL)CARBAMOYL)PYRROLIDIN-1-YL)-3,3-DIMETHYL-1-OXOBUTAN-2-YL)AMINO)-2-OXOETHOXY)ETHOXY)HEXYL)OXY)-2,5-DIMETHOXYPHENYL)-5-METHYL-1H-1,2,3-TRIAZOLE-4-CARBOXAMIDO)BENZOATE] | – | – | – | – | CC50 [5]: > 30 µM; CC50 [6]: > 30 µM
8 | CCC[C@H](CC)Oc1ccc(C(=O)NCCCCC(=O)N[C@H](C(=O)N2C[C@H](O)C[C@H]2C(=O)NCc2ccc(-c3scnc3C)cc2)C(C)(C)C)cc1NC(=O)c1nnn(-c2cc(OC)ccc2OC)c1C [Compound 17] | – | – | > 30 | > 30 | –
9 | COc1cc(OCCOCCOCCOCCOCCC(=O)N[C@H](C(=O)N2C[C@H](O)C[C@H]2C(=O)NCc2ccc(-c3scnc3C)cc2)C(C)(C)C)c(C)cc1-n1nnc(S(=O)(=O)c2ccc(C(C)(C)C)cc2)c1C [Compound 29, (2S,4R)-1-((S)-17-(TERT-BUTYL)-1-(4-(4-((4-(TERT-BUTYL)PHENYL)SULFONYL)-5-METHYL-1H-1,2,3-TRIAZOL-1-YL)-5-METHOXY-2-METHYLPHENOXY)-15-OXO-3,6,9,12-TETRAOXA-16-AZAOCTADECAN-18-OYL)-4-HYDROXY-N-(4-(4-METHYLTHIAZOL-5-YL)BENZYL)PYRROLIDINE-2-CARBOXAMIDE] | > 30 | > 30 | – | – | –
10 | CCC[C@H](CC)Oc1ccc(C(C)(C)C)cc1NC(=O)c1nnn(-c2cc(OC)c(OCCCCCCOCCOCC(=O)N[C@H](C(=O)N3C[C@H](O)C[C@H]3C(=O)NCc3ccc(-c4scnc4C)cc3)C(C)(C)C)cc2OC)c1C [Compound 37, N-(5-(TERT-BUTYL)-2-(((S)-HEXAN-3-YL)OXY)PHENYL)-1-(4-((6-(2-(2-(((S)-1-((2S,4R)-4-HYDROXY-2-((4-(4 METHYLTHIAZOL-5-YL)BENZYL)CARBAMOYL)PYRROLIDIN-1-YL)-3,3-DIMETHYL-1-OXOBUTAN-2-YL)AMINO)-2 OXOETHOXY)ETHOXY)HEXYL)OXY)-2,5-DIMETHOXYPHENYL)-5-METHYL-1H-1,2,3-TRIAZOLE-4-CARBOXAMIDE] | – | – | – | – | CC50 [5]: > 30 µM; CC50 [6]: > 30 µM
11 | CCC[C@H](CC)Oc1ccc(C(=O)NCCOCCOCC(=O)N[C@H](C(=O)N2C[C@H](O)C[C@H]2C(=O)NCc2ccc(-c3scnc3C)cc2)C(C)(C)C)cc1NC(=O)c1nnn(-c2cc(OC)ccc2OC)c1C [Compound 18] | – | – | > 30 | > 30 | –
12 | COc1cc(OCCCCCCCC(=O)N[C@H](C(=O)N2C[C@H](O)C[C@H]2C(=O)NCc2ccc(-c3scnc3C)cc2)C(C)(C)C)c(C)cc1-n1nnc(S(=O)(=O)c2ccc(C(C)(C)C)cc2)c1C [Compound 25, (2S,4R)-1-((S)-2-(8-(4-(4-((4-(TERT-BUTYL)PHENYL)SULFONYL)-5-METHYL-1H-1,2,3-TRIAZOL-1-YL)-5-METHOXY-2-METHYLPHENOXY)OCTANAMIDO)-3,3-DIMETHYLBUTANOYL)-4-HYDROXY-N-(4-(4-METHYLTHIAZOL-5-YL)BENZYL)PYRROLIDINE-2-CARBOXAMIDE] | > 30 | > 30 | – | – | –
13 | COc1cc(OCCOCCOCCOCCC(=O)N[C@H](C(=O)N2C[C@H](O)C[C@H]2C(=O)NCc2ccc(-c3scnc3C)cc2)C(C)(C)C)c(C)cc1-n1nnc(S(=O)(=O)c2ccc(C(C)(C)C)cc2)c1C [Compound 27, (2S,4R)-1-((S)-14-(TERT-BUTYL)-1-(4-(4-((4-(TERT-BUTYL)PHENYL)SULFONYL)-5-METHYL-1H-1,2,3-TRIAZOL-1-YL)-5-METHOXY-2-METHYLPHENOXY)-12-OXO-3,6,9-TRIOXA-13-AZAPENTADECAN-15-OYL)-4-HYDROXY-N-(4-(4-METHYLTHIAZOL-5-YL)BENZYL)PYRROLIDINE-2-CARBOXAMIDE] | > 30 | > 30 | – | – | –
